{"source": "patent US20260256799A1", "about": "“INHIBITORS FOR TREATING SOLID TUMOURS” (UNIVERSITY OF SOUTHAMPTON, priority 2023, published 2026)", "system": "HNSCC and NSCLC CAF", "experiment": "Established myoCAF phenotype of CAF cultured ex vivo", "assay_type": "cell-based, human", "experimental": "Human NSCLC cell line H441, HNSCC SCC25, murine cancer cell line TC-1 (lung), MC38 (colon) and human fetal foreskin fibroblasts HFFF2 were purchased from European Collection of Cell Cultures (Public Health England) or ATCC; HNSCC 5PT [32] were provided by l. Mackenzie (Queen Mary University of London, UK). HEK-293T cells and IMR90 lung fibroblasts were provided by Jesus Gil (Imperial College, London, UK). SCC25 were grown in Ham's F12:DMEM (1:1 ratio) medium with 10% FBS (Calbiochem) and 292 μg/ml L-Glutamine. 5PT were cultured in keratinocyte growth medium. HEK-293T, H441, MC38, HFFF2, IMR90 and primary fibroblasts were grown in DMEM supplemented with 10% FBS and 292 μg/ml L-Glutamine. Primary fibroblasts were isolated as previously used at early passage (p1-10). C57BL/6 murine normal lung and colon fibroblasts (MLF and MCF respectively) were grown at 3% oxygen. TC-1 were cultured in RPMI supplemented with 10% FBS and 292 μg/ml L-Glutamine. All cell cultures were routinely tested for mycoplasma contamination. All cells were cultured using standard cell culture plates/flasks (Corning). HFFF2 or IMR90 cells were transfected with 25 μM On-Target pool siRNA (Thermo Scientific/Dharmacon) using Oligofectamine reagent (Life Technologies) as described. Stable knockdown was performed using retro/lentiviral mediated transduction of shRNA plasmids, as previously described followed by cell selection using 1 μg/ml puromycin for 5-7 days. NOX4-inducible HEK-293 cells (kindly provided by Vincent Jaquet) were treated with 1 μg/ml doxycycline. Wild type and mutant (C2991L) ATM over-expression was carried out transfecting HFFF2 with Viafect (Promega) according to manufacturer's instructions and selected for 10 days with 4 mg/ml G418. p-Retrosuper-shATM (ATM #1:912) and pCDNA3.1-Flag-mut-ATM (C2991L; pTP1625 clone) were kindly provided by Yosef Shiloh and Tanya Paull respectively. pLKO.1 murine shATM (TRCN0000012643) and pCDNA3.1-Flag-wt-ATM (31985) were purchased from Sigma and Addgene respectively. 2 ng/ml TGF-3 (TGF-β1; R&D Systems; for 3 days) was used to induce myofibroblast differentiation. 10 ng/ml IL-1pR (R&D Systems) for 72 hours was used to induce iCAF differentiation. […] All the inhibitors were resuspended in DMSO. To trigger DDR activation and/or cell stress HFFF2 were either irradiated with 2-100Gy using 350Kv X-Ray Irradiation System (Faxitron), or treated with 100 ng/ml Neocarzinostatin for 2 hours (NCS; Sigma), with 2-10 mM H2O2(Fisher Scientific) or with 5 μg/ml Cisplatin (Sandoz) for 30 minutes.\nCells were lysed in ice-cold RIPA buffer [1% NP40, 150 mM NaCl, 25 mM Tris-HCl pH 7.5, 0.1% SDS, 1% Na-Deoxycolate, 1 mM EGTA, 1 mM EDTA, 1 mM Na-orthovanadate, 10 mM Na-fluoride, 2.5 mM Na-pyrophosphate, 1 mM p glycerophosphate+freshly added 1 mM PMSF, 20 mM N-Ethylmaleimide (NEM), 10 ng/ml Microcystin-LR, 0.12 μM Okadaic acid and phosphatase and protease inhibitor cocktails; all from Sigma]. Protein extracts were then centrifuged and supernatants quantified using Dc-Bio-Rad protein assay kit (Bio-Rad laboratories) as previously. For nuclear-cytoplasmic protein extraction, the inventors used NE-PER Reagents according to manufacturer's instructions (Thermofisher). Equal amounts of protein were electrophoresed either in reducing (+Dithiothreitol, DTT) or in non-reducing conditions in 3-8% or 4-12% SDS-PAGE gels and electro blotted as previously."}
{"smiles": "CN(C)CCCOc1ccc(-c2ccc3ncc4c(c3c2)n(C2CCOCC2)c(=O)n4C)cn1", "note": "[AZD0156]", "values": [{"measurement": "myoCAF differentiation (reversal)", "setting": "CAF E treated with AZD0156 for 5 days, Q-RT-PCR", "result": "reversed"}, {"measurement": "reversal of myoCAF differentiation after AZD0156 treatment was discontinued", "setting": "CAF E, 5 days AZD0156 then further 5 days without AZD0156", "result": "maintained"}]}
